Experiments:
[1] = system: SW13; experiment: cells; type: functional, cell-based; details: Homo sapiens;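 note: IC50 is inhibition of SW13 cell growth, read out with a cell viability assay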
Description: SANGER: Inhibition of human SW13 cell growth in a cell viability assay.

[2] = system: NUGC-3; experiment: cells; type: functional, cell-based; details: Homo sapiens;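 note: growth inhibition of human NUGC-3 cells, read out with a cell viability assay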
Description: SANGER: Inhibition of human NUGC-3 cell growth in a cell viability assay.

[3] = system: RMG-I; experiment: cells; type: functional, cell-based; details: Homo sapiens;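 note: growth inhibition of human RMG-I cells, read out with a cell viability assay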
Description: SANGER: Inhibition of human RMG-I cell growth in a cell viability assay.

[4] = system: SK-MEL-30; experiment: cells; type: functional, cell-based; details: Homo sapiens;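 note: growth inhibition of SK-MEL-30 cells, determined with a cell viability assay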
Description: SANGER: Inhibition of human SK-MEL-30 cell growth in a cell viability assay.

[5] = system: SW1573; experiment: cells; type: functional, cell-based; details: Homo sapiens;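 note: growth inhibition of SW1573 cells, read out with a cell viability assay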
Description: SANGER: Inhibition of human SW1573 cell growth in a cell viability assay.

[6] = system: NCI-H64; experiment: cells; type: functional, cell-based, Homo sapiens; details: Homo sapiens, NCI-H64;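 note: growth inhibition of NCI-H64 cells, read out with a cell viability assay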
Description: SANGER: Inhibition of human NCI-H64 cell growth in a cell viability assay.

[7] = system: KP-4; experiment: cells; type: functional, cell-based; details: Homo sapiens;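 note: human KP-4 cells, with growth inhibition read out through a cell viability assay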
Description: SANGER: Inhibition of human KP-4 cell growth in a cell viability assay.

[8] = system: WM-115; experiment: cells; type: functional, cell-based; details: Homo sapiens
Description: SANGER: Inhibition of human WM-115 cell growth in a cell viability assay.

[9] = system: DK-MG; experiment: cells; type: functional, cell-based; details: Homo sapiens;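 note: growth inhibition of DK-MG cells, read out with a cell viability assay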
Description: SANGER: Inhibition of human DK-MG cell growth in a cell viability assay.

[10] = system: HTC-C3; experiment: cells; type: functional, cell-based; details: Homo sapiens;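 note: inhibition of cell growth, read out with a cell viability assay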
Description: SANGER: Inhibition of human HTC-C3 cell growth in a cell viability assay.

[11] = system: HuTu80; experiment: cells; type: functional, cell-based, Homo sapiens, HUTU-80; details: Homo sapiens, HuTu80;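 note: growth inhibition of HuTu80 human cells, determined with a cell viability readout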
Description: SANGER: Inhibition of human HUTU-80 cell growth in a cell viability assay.

[12] = system: KYSE-70 cell line; experiment: cells; type: functional, cell-based; details: Homo sapiens;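 note: cell viability assay read-out, with IC50 expressing suppression of KYSE-70 cell growth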
Description: SANGER: Inhibition of human KYSE-70 cell growth in a cell viability assay.

[13] = system: SNU-C1; experiment: cells; type: functional, cell-based, Homo sapiens; details: Homo sapiens, SNU-C1;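 note: growth inhibition of SNU-C1 human cells, read out by a cell viability assay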
Description: SANGER: Inhibition of human SNU-C1 cell growth in a cell viability assay.

[14] = system: MEL-JUSO; experiment: cells; type: functional, cell-based; details: Homo sapiens;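 note: growth inhibition of human MEL-JUSO cells, read out with a cell viability assay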
Description: SANGER: Inhibition of human MEL-JUSO cell growth in a cell viability assay.

[15] = system: A-431; experiment: cells; type: functional, cell-based; details: Homo sapiens;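 note: growth inhibition of A-431 cells, determined with a cell viability read-out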
Description: SANGER: Inhibition of human A431 cell growth in a cell viability assay.

[16] = system: NCI-H322M; experiment: cells; type: functional, cell-based, Homo sapiens; details: Homo sapiens, NCI-H322M;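 note: cell viability assay measuring inhibition of growth of human NCI-H322M cells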
Description: SANGER: Inhibition of human NCI-H322M cell growth in a cell viability assay.

[17] = system: LCLC-103H cell line; experiment: cells; type: functional, cell-based; details: Homo sapiens
Description: SANGER: Inhibition of human LCLC-103H cell growth in a cell viability assay.

[18] = system: NCI-H2081; experiment: cells; type: functional, cell-based, Homo sapiens; details: Homo sapiens, NCI-H2081;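 note: growth inhibition of human NCI-H2081 cells, read out with a cell viability assay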
Description: SANGER: Inhibition of human NCI-H2081 cell growth in a cell viability assay.

[19] = system: KARPAS-422; experiment: cells; type: functional, cell-based, Homo sapiens; details: Homo sapiens, KARPAS-422
Description: SANGER: Inhibition of human KARPAS-422 cell growth in a cell viability assay.

[20] = system: KU-19-19; experiment: cells; type: functional, cell-based; details: Homo sapiens
Description: SANGER: Inhibition of human KU-19-19 cell growth in a cell viability assay.

[21] = system: HT55; experiment: cells; type: functional, cell-based; details: Homo sapiens;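 note: cell viability readout measuring growth inhibition of human HT55 cells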
Description: SANGER: Inhibition of human HT55 cell growth in a cell viability assay.

[22] = system: Daudi; experiment: cells; type: functional, cell-based, Homo sapiens; details: Homo sapiens, Daudi;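 note: growth inhibition of Daudi cells, read out by a viability assay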
Description: SANGER: Inhibition of human Daudi cell growth in a cell viability assay.

[23] = system: CAL-39; experiment: cells; type: functional, cell-based; details: Homo sapiens;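 note: cell viability assay measuring growth inhibition of CAL-39 cells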
Description: SANGER: Inhibition of human CAL-39 cell growth in a cell viability assay.

[24] = system: HCC70; experiment: cells; type: functional, cell-based; details: Homo sapiens;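 note: cell viability assay measuring how strongly the compound suppresses proliferation of HCC70 cells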
Description: SANGER: Inhibition of human HCC70 cell growth in a cell viability assay.

[25] = system: LoVo; experiment: cells; type: functional, cell-based; details: Homo sapiens;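 note: growth inhibition of human LoVo cells, read out with a cell viability assay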
Description: SANGER: Inhibition of human LoVo cell growth in a cell viability assay.

[26] = system: CMK; experiment: cells; type: functional, cell-based, Homo sapiens; details: Homo sapiens, CMK;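 note: growth inhibition of CMK cells, read out as cell viability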
Description: SANGER: Inhibition of human CMK cell growth in a cell viability assay.

[27] = system: LK-2; experiment: cells; type: functional, cell-based; details: Homo sapiens;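 note: growth inhibition of LK-2 cells, read out with a viability assay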
Description: SANGER: Inhibition of human LK-2 cell growth in a cell viability assay.

[28] = system: A-375; experiment: cells; type: functional, cell-based; details: Homo sapiens;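 note: growth inhibition of A375 cells, read out with a cell viability assay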
Description: SANGER: Inhibition of human A375 cell growth in a cell viability assay.

[29] = system: VM-CUB-1; experiment: cells; type: functional, cell-based; details: Homo sapiens;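 note: cell viability assay measuring growth inhibition of the human VM-CUB-1 cell line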
Description: SANGER: Inhibition of human VM-CUB-1 cell growth in a cell viability assay.

[30] = system: HCC1937; experiment: cells; type: functional, cell-based; details: Homo sapiens;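 note: growth inhibition measured with a cell viability read-out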
Description: SANGER: Inhibition of human HCC1937 cell growth in a cell viability assay.

[31] = system: IMR-5; experiment: cells; type: functional, cell-based, Homo sapiens; details: Homo sapiens, IMR-5; read-out: IC50;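 note: growth inhibition of human IMR-5 cells, read out with a cell viability assay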
Description: SANGER: Inhibition of human IMR-5 cell growth in a cell viability assay.

[32] = system: NCI-H2170; experiment: cells; type: functional, cell-based; details: Homo sapiens;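 note: cell viability assay measuring growth inhibition of human NCI-H2170 cancer cells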
Description: SANGER: Inhibition of human NCI-H2170 cell growth in a cell viability assay.

[33] = system: BOKU; experiment: cells; type: functional, cell-based; details: Homo sapiens;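 note: growth inhibition of the human BOKU cell line, read out by a cell viability assay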
Description: SANGER: Inhibition of human BOKU cell growth in a cell viability assay.

[34] = system: CAMA-1; experiment: cells; type: functional, cell-based; details: Homo sapiens;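 note: growth inhibition of CAMA-1 cells, read out with a cell viability assay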
Description: SANGER: Inhibition of human CAMA-1 cell growth in a cell viability assay.

[35] = system: 769-P; experiment: cells; type: functional, cell-based; details: Homo sapiens
Description: SANGER: Inhibition of human 769-P cell growth in a cell viability assay.

[36] = system: MKN-7; experiment: cells; type: functional, cell-based; details: Homo sapiens;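 note: growth inhibition of MKN-7 cells, read out with a cell viability assay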
Description: SANGER: Inhibition of human MKN7 cell growth in a cell viability assay.

[37] = system: OAW-42; experiment: cells; type: functional, cell-based; details: Homo sapiens;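 note: growth inhibition of OAW-42 cells, read out with a cell viability assay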
Description: SANGER: Inhibition of human OAW-42 cell growth in a cell viability assay.

[38] = system: NCI-H524; experiment: cells; type: functional, cell-based, Homo sapiens; details: Homo sapiens, NCI-H524;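 note: growth inhibition of human NCI-H524 cells, read out through a cell viability assay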
Description: SANGER: Inhibition of human NCI-H524 cell growth in a cell viability assay.

[39] = system: HuP-T4; experiment: cells; type: functional, cell-based; details: Homo sapiens;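 note: cell viability assay measuring how much HuP-T4 cell growth is inhibited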
Description: SANGER: Inhibition of human HuP-T4 cell growth in a cell viability assay.

[40] = system: HOP-92; experiment: cells; type: functional, cell-based; details: Homo sapiens;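 note: cell viability readout, with IC50 reflecting inhibition of HOP-92 cell growth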
Description: SANGER: Inhibition of human HOP-92 cell growth in a cell viability assay.

[41] = system: CAL-120; experiment: cells; type: functional, cell-based; details: Homo sapiens;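 note: cell growth inhibition, read out as cell viability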
Description: SANGER: Inhibition of human CAL-120 cell growth in a cell viability assay.

[42] = system: NCI-H719; experiment: cells; type: functional, cell-based, Homo sapiens; details: Homo sapiens, NCI-H719;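 note: growth inhibition of the cultured cell line, read out with a viability assay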
Description: SANGER: Inhibition of human NCI-H719 cell growth in a cell viability assay.

[43] = system: SK-MEL3; experiment: cells; type: functional, cell-based, SK-MEL-3; details: Homo sapiens;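 note: growth inhibition of human SK-MEL-3 cells, read out with a cell viability assay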
Description: SANGER: Inhibition of human SK-MEL-3 cell growth in a cell viability assay.

[44] = system: EFM-19; experiment: cells; type: functional, cell-based; details: Homo sapiens;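 note: growth inhibition of human EFM-19 cells, measured in a cell viability assay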
Description: SANGER: Inhibition of human EFM-19 cell growth in a cell viability assay.

[45] = system: CAL-62; experiment: cells; type: functional, cell-based; details: Homo sapiens;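 note: growth inhibition of CAL-62 cells, read out with a cell viability assay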
Description: SANGER: Inhibition of human CAL-62 cell growth in a cell viability assay.

[46] = system: ASPC1; experiment: cells; type: functional, cell-based; details: Homo sapiens;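 note: growth inhibition of AsPC-1 cells, read out with a cell viability assay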
Description: SANGER: Inhibition of human AsPC-1 cell growth in a cell viability assay.

[47] = system: BL-70; experiment: SANGER: Inhibition of human BL-70 cell growth in a cell viability assay.; type: functional, cell-based; details: Homo sapiens, BL-70
[48] = system: MKN-1; experiment: cells; type: functional, cell-based; details: Homo sapiens;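 note: growth inhibition of human MKN1 cells, read out by a cell viability measurement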
Description: SANGER: Inhibition of human MKN1 cell growth in a cell viability assay.

[49] = system: KYSE-510; experiment: cells; type: functional, cell-based; details: Homo sapiens;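 note: cell viability readout used to measure how strongly growth of the cell line is suppressed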
Description: SANGER: Inhibition of human KYSE-510 cell growth in a cell viability assay.

[50] = system: BC1 cell line; experiment: SANGER: Inhibition of human BC-1 cell growth in a cell viability assay.; type: functional, cell-based; details: Homo sapiens, BC1
[51] = system: LCLC-97TM1; experiment: cells; type: functional, cell-based; details: Homo sapiens;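 note: cell viability assay measuring growth inhibition of human LCLC-97TM1 cells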
Description: SANGER: Inhibition of human LCLC-97TM1 cell growth in a cell viability assay.

[52] = system: HuO9; experiment: cells; type: functional, cell-based; details: Homo sapiens;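 note: growth inhibition of HuO9 cells, read out with a cell viability assay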
Description: SANGER: Inhibition of human HuO9 cell growth in a cell viability assay.

[53] = system: TCC-SUP; experiment: cells; type: functional, cell-based; details: Homo sapiens;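 note: growth inhibition of TCC-SUP cells, read out with a cell viability assay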
Description: SANGER: Inhibition of human TCCSUP cell growth in a cell viability assay.

[54] = system: KOSC-2; experiment: cells; type: functional, cell-based; details: Homo sapiens;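 note: growth inhibition of KOSC-2 cells, read out by a cell viability assay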
Description: SANGER: Inhibition of human KOSC-2 cell growth in a cell viability assay.

[55] = system: SW626; experiment: cells; type: functional, cell-based; details: Homo sapiens;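 note: growth inhibition of SW626 cells, measured with a cell viability assay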
Description: SANGER: Inhibition of human SW626 cell growth in a cell viability assay.

[56] = system: EB-3; experiment: cells; type: functional, cell-based, Homo sapiens; details: Homo sapiens, EB-3;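 note: human EB-3 cells, growth inhibition read out via a cell viability assay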
Description: SANGER: Inhibition of human EB-3 cell growth in a cell viability assay.

[57] = system: MRK-nu-1; experiment: cells; type: functional, cell-based, Homo sapiens; details: Homo sapiens, MRK-nu-1;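 note: cell viability assay measuring growth suppression of human MRK-nu-1 cells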
Description: SANGER: Inhibition of human MRK-nu-1 cell growth in a cell viability assay.

[58] = system: EC-GI-10; experiment: cells; type: functional, cell-based, Homo sapiens; details: Homo sapiens, EC-GI-10
Description: SANGER: Inhibition of human EC-GI-10 cell growth in a cell viability assay.

COC(=O)[C@H](CCSC)NC(=O)c1ccc(NC[C@@H](N)CS)cc1-c1ccccc1
IC50 [1]: > 1020 nM
IC50 [2]: > 1020 nM
IC50 [3]: > 1020 nM
IC50 [4]: > 1020 nM
IC50 [5]: > 1020 nM
IC50 [6]: > 1020 nM
IC50 [7]: > 1020 nM
IC50 [8]: > 1020 nM
IC50 [9]: > 1020 nM
IC50 [10]: > 1020 nM
IC50 [11]: > 1020 nM
IC50 [12]: > 1020 nM
IC50 [13]: > 1020 nM
IC50 [14]: 184 nM
IC50 [15]: > 1020 nM
IC50 [16]: > 1020 nM
IC50 [17]: > 1020 nM
IC50 [18]: > 1020 nM
IC50 [19]: > 1020 nM
IC50 [20]: > 1020 nM
IC50 [21]: > 1020 nM
IC50 [22]: > 1020 nM
IC50 [23]: > 1020 nM
IC50 [24]: > 1020 nM
IC50 [25]: > 1020 nM
IC50 [26]: > 1020 nM
IC50 [27]: > 1020 nM
IC50 [28]: > 1020 nM
IC50 [29]: > 1020 nM
IC50 [30]: > 1020 nM
IC50 [31]: > 1020 nM
IC50 [32]: > 1020 nM
IC50 [33]: > 1020 nM
IC50 [34]: > 1020 nM
IC50 [35]: > 1020 nM
IC50 [36]: > 1020 nM
IC50 [37]: > 1020 nM
IC50 [38]: > 1020 nM
IC50 [39]: > 1020 nM
IC50 [40]: > 1020 nM
IC50 [41]: > 1020 nM
IC50 [42]: > 1020 nM
IC50 [43]: > 1020 nM
IC50 [44]: > 1020 nM
IC50 [45]: > 1020 nM
IC50 [46]: > 1020 nM
IC50 [47]: > 1020 nM
IC50 [48]: > 1020 nM
IC50 [49]: > 1020 nM
IC50 [50]: > 1020 nM
IC50 [51]: > 1020 nM
IC50 [52]: > 1020 nM
IC50 [53]: > 1020 nM
IC50 [54]: > 1020 nM
IC50 [55]: > 1020 nM
IC50 [56]: > 1020 nM
IC50 [57]: > 1020 nM
IC50 [58]: > 1020 nM

O=S(=O)(O)c1ccc2cc(/N=N/c3cc(S(=O)(=O)O)c4cccnc4c3O)ccc2c1
IC50 [1]: > 16000 nM
IC50 [2]: > 16000 nM
IC50 [3]: > 16000 nM
IC50 [4]: > 16000 nM
IC50 [5]: > 16000 nM
IC50 [6]: > 16000 nM
IC50 [7]: > 16000 nM
IC50 [8]: > 16000 nM
IC50 [9]: > 16000 nM
IC50 [10]: > 16000 nM
IC50 [11]: > 16000 nM
IC50 [12]: > 16000 nM
IC50 [13]: > 16000 nM
IC50 [14]: > 16000 nM
IC50 [15]: > 16000 nM
IC50 [16]: > 16000 nM
IC50 [17]: > 16000 nM
IC50 [18]: > 16000 nM
IC50 [19]: > 16000 nM
IC50 [20]: > 16000 nM
IC50 [21]: > 16000 nM
IC50 [22]: > 16000 nM
IC50 [23]: > 16000 nM
IC50 [24]: > 16000 nM
IC50 [25]: > 16000 nM
IC50 [26]: > 16000 nM
IC50 [27]: > 16000 nM
IC50 [28]: > 16000 nM
IC50 [29]: > 16000 nM
IC50 [30]: > 16000 nM
IC50 [31]: > 16000 nM
IC50 [32]: > 16000 nM
IC50 [33]: > 16000 nM
IC50 [34]: > 16000 nM
IC50 [35]: > 16000 nM
IC50 [36]: > 16000 nM
IC50 [37]: > 16000 nM
IC50 [38]: > 16000 nM
IC50 [39]: > 16000 nM
IC50 [40]: > 16000 nM
IC50 [41]: > 16000 nM
IC50 [42]: > 16000 nM
IC50 [43]: > 16000 nM
IC50 [44]: > 16000 nM
IC50 [45]: > 16000 nM
IC50 [46]: > 16000 nM
IC50 [47]: > 16000 nM
IC50 [48]: > 16000 nM
IC50 [49]: > 16000 nM
IC50 [50]: > 16000 nM
IC50 [51]: > 16000 nM
IC50 [52]: > 16000 nM
IC50 [53]: > 16000 nM
IC50 [54]: > 16000 nM
IC50 [55]: > 16000 nM
IC50 [56]: > 16000 nM
IC50 [57]: > 16000 nM
IC50 [58]: > 16000 nM

Cc1ccc(C(=O)Nc2ccc(CN3CCN(C)CC3)c(C(F)(F)F)c2)cc1C#Cc1cnc2cccnn12 [PONATINIB]
IC50 [1]: > 512 nM
IC50 [2]: > 512 nM
IC50 [3]: > 512 nM
IC50 [4]: > 512 nM
IC50 [5]: > 512 nM
IC50 [6]: > 512 nM
IC50 [7]: > 512 nM
IC50 [8]: > 512 nM
IC50 [9]: > 512 nM
IC50 [10]: > 512 nM
IC50 [11]: > 512 nM
IC50 [12]: > 512 nM
IC50 [13]: > 512 nM
IC50 [14]: > 512 nM
IC50 [15]: > 512 nM
IC50 [16]: > 512 nM
IC50 [17]: > 512 nM
IC50 [18]: > 512 nM
IC50 [19]: > 512 nM
IC50 [20]: > 512 nM
IC50 [21]: > 512 nM
IC50 [22]: 25.4 nM
IC50 [23]: 465 nM
IC50 [24]: > 512 nM
IC50 [25]: > 512 nM
IC50 [26]: > 512 nM
IC50 [27]: > 512 nM
IC50 [28]: > 512 nM
IC50 [29]: > 512 nM
IC50 [30]: > 512 nM
IC50 [31]: > 512 nM
IC50 [32]: > 512 nM
IC50 [33]: > 512 nM
IC50 [34]: > 512 nM
IC50 [35]: > 512 nM
IC50 [36]: > 512 nM
IC50 [37]: > 512 nM
IC50 [38]: > 512 nM
IC50 [39]: > 512 nM
IC50 [40]: > 512 nM
IC50 [41]: 476 nM
IC50 [42]: 78.9 nM
IC50 [43]: > 512 nM
IC50 [44]: > 512 nM
IC50 [45]: > 512 nM
IC50 [46]: > 512 nM
IC50 [47]: 22 nM
IC50 [48]: > 512 nM
IC50 [49]: > 512 nM
IC50 [50]: > 512 nM
IC50 [51]: 462 nM
IC50 [52]: 54.5 nM
IC50 [54]: > 512 nM
IC50 [55]: > 512 nM
IC50 [56]: > 512 nM
IC50 [57]: > 512 nM
IC50 [58]: > 512 nM

From ChEMBL document CHEMBL1201861, “Genomics of Drug Sensitity in Cancer screening data, Wellcome Trust Sanger Institute”
